Test results taken from US12622913B2, “Folate salts for medical use” (APROFOL AG, priority 2018, dated 2026).

Legend:
[1] = Solubility determination of selected folate salts in solvents; format: physicochemical; settings: mass-% (m/m), 20° C.; for Solubility in DMSO: solvent DMSO; for Solubility in EtOH: solvent EtOH; for Solubility in MeOH: solvent MeOH; for Solubility in Glycerine: solvent glycerine; for Solubility in i-PrOH: solvent i-PrOH; for Solubility in n-PrOH: solvent n-PrOH
Protocol: Solubility determination of selected folate salts was in general performed as follows:
A quantity of the salt corresponding to the expected solubility (between 1-100 mg) was provided and mixed with increments of the respective solvent until a solution was formed.

[2] = cited from earlier work
[3] = glycerine; previous data confirmed by the test; cited from earlier work

Row | Compound | Solubility in DMSO [1] | Solubility in EtOH [1] | Solubility in MeOH [1] | Solubility in Glycerine [1] | Solubility in i-PrOH [1] | Solubility in n-PrOH [1] | Solubility in dilute acid or dilute alkali ([2]; dilute acid or dilute alkali) | Solubility in organic solvents ([2]; organic solvents) | Solubility in water ([2]; water at 25° C.) | Solubility of calcium salt, previous data [3]
1 | 5-Formyl-(6S)-tetrahydrofolic acid di acetylcholine salt [FTHF di acetylcholine] | 0.25% | 55.80% | 55.80% | 24.10% | 0.50% | 55.90% | – | – | – | –
2 | 5-Methyl-(6S)-tetrahydrofolic acid di acetylcholine salt [MTHF di acetylcholine] | 47.62% | 50.00% | >>50% | 24.10% | 50.00% | 50.00% | – | – | – | –
3 | 5-methyl-tetrahydrofolic acid glucosamine salt [5-MTHF-glucosamine] | – | – | – | – | – | – | soluble | insoluble | very soluble | –
4 | CN1c2c([nH]c(N)nc2=O)NC[C@@H]1CNc1ccc(C(=O)N[C@@H](CCC(=O)[O-])C(=O)[O-])cc1.[Ca+2] [calcium salt of 5-methyl-(6S)-tetrahydrofolic acid] | – | – | – | – | – | – | – | – | – | approximately 1%
